pIC50: −log10 of the molar value.
What was measured:
[1] = biological target: T1, Recombinant HCV polymerase (BK strain) (Hepatitis C virus genotype 1b, UniProt P26663); assay: HCV polymerase enzyme assay (radiometric [33P]-UTP incorporation); assay type: biochemical, HCV 1b
T1 construct: Recombinant HCV polymerase (BK strain) was expressed and purified from E. coli with a 21 amino acid C-terminal deletion; His6; made in house; host or cells: E. coli
In short: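 His6-tagged BK-strain NS5B lacking 21 C-terminal residues, expressed in E. coli, at 100 nM in Tris pH 7.5 with 5 mM MgCl2 and 3% DMSO. Substrates: 125 nM biotin-U13:0.63 μg/ml PolyA, 200 nM UTP plus [33P]-UTP; 100 min at 25° C. Incorporation read by streptavidin capture; IC50 from 8-point curve.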

[2] = tested on: HCV replicon cells Huh 9B; assay: HCV replicon assay (luciferase); assay type: cell-based; settings: Hepatitis C virus, reduction of replicon level by 50% vs untreated cell control, 72 h
[3] = tested on: HCV replicon cells Huh 9B; assay type: cell-based; settings: concentration reducing total cell area by 50% relative to DMSO controls; 72 h
In short: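 Huh 9B replicon cells (luciferase-ubiquitin-neomycin fusion, EMCV-IRES-driven HCV polyprotein with adaptive mutations) were seeded from a 100,000 cells/ml suspension in G418-free medium, grown 24 h, then exposed to compound (dilutions at 1% DMSO) for 72 h at 37 °C. For toxicity, methylene blue staining was read at 620 nm and TD50 derived relative to DMSO controls.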

T1 sequence (P26663 2420-2989): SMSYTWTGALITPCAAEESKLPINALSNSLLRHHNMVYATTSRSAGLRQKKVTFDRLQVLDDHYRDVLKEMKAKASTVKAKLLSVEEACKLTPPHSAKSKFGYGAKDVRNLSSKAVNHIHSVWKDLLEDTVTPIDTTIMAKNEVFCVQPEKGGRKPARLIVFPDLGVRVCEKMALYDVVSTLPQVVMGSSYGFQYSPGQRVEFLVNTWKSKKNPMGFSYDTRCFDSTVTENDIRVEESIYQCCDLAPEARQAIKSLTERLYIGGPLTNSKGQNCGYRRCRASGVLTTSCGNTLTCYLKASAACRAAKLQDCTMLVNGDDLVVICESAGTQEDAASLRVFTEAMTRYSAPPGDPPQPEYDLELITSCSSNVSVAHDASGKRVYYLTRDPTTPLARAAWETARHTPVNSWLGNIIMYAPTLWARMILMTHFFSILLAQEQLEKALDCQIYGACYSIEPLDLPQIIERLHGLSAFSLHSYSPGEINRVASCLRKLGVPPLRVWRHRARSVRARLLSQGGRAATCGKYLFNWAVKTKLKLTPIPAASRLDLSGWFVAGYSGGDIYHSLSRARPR

Structure (SMILES)	pIC50 [1]	pIC50 [2]	Replicon Assay Value TD50 [3] [µM]
COCCOc1nccc(C)c1C(=O)NC1N=C(c2c(Cl)cc(Cl)cc2Cl)c2ccccc2NC1=O (stereo not drawn) [Example 40, 2-(2-Methoxyethoxy)-4-methyl-N-(2-oxo-5-(2,4,6-trichlorophenyl)-2,3-dihydro-1H-benzo[e][1,4]diazepin-3-yl)nicotinamide]	5.53	6.07	24.518
COCCN(C)c1ncc(F)cc1C(=O)NC1N=C(c2c(Cl)cc(Cl)cc2Cl)c2ccccc2NC1=O (stereo not drawn) [Example 41, 5-Fluoro-2-((2-methoxyethyl)(methyl)amino)-N-(2-oxo-5-(2,4,6-trichlorophenyl)-2,3-dihydro-1H-benzo[e][1,4]diazepin-3-yl)nicotinamide]	6.89	7.61	24.146
COCCNc1ncc(F)cc1C(=O)NC1N=C(c2c(Cl)cc(Cl)cc2Cl)c2ccccc2NC1=O (stereo not drawn) [Example 42, 5-Fluoro-2-(2-methoxyethylamino)-N-(2-oxo-5-(2,4,6-trichlorophenyl)-2,3-dihydro-1H-benzo[e][1,4]diazepin-3-yl)nicotinamide]	6.01	5.58	17.784
CCN(CCOC)c1ncc(F)cc1C(=O)NC1N=C(c2c(Cl)cc(Cl)cc2Cl)c2ccccc2NC1=O (stereo not drawn) [Example 43, 2-(Ethyl(2-methoxyethyl)amino)-5-fluoro-N-(2-oxo-5-(2,4,6-trichlorophenyl)-2,3-dihydro-1H-benzo[e][1,4]diazepin-3-yl)nicotinamide]	6.69	6.10	23.97
COCCN(c1ncc(F)cc1C(=O)NC1N=C(c2c(Cl)cc(Cl)cc2Cl)c2ccccc2NC1=O)C(C)C (stereo not drawn) [Example 44, 5-Fluoro-2-(isopropyl(2-methoxyethyl)amino)-N-(2-oxo-5-(2,4,6-trichlorophenyl)-2,3-dihydro-1H-benzo[e][1,4]diazepin-3-yl)nicotinamide]	5.88	5.58	23.394
CCOCCN(CC)c1ncc(F)cc1C(=O)NC1N=C(c2c(Cl)cc(Cl)cc2Cl)c2ccccc2NC1=O (stereo not drawn) [Example 45, 2-((2-Ethoxyethyl)(ethyl)amino)-5-fluoro-N-(2-oxo-5-(2,4,6-trichlorophenyl)-2,3-dihydro-1H-benzo[e][1,4]diazepin-3-yl)nicotinamide]	6.75	6.12	18.864
CN(CCOCC1CC1)c1ncc(F)cc1C(=O)NC1N=C(c2c(Cl)cc(Cl)cc2Cl)c2ccccc2NC1=O (stereo not drawn) [Example 46, 2-((2-(Cyclopropylmethoxy)ethyl)(methyl)amino)-5-fluoro-N-(2-oxo-5-(2,4,6-trichlorophenyl)-2,3-dihydro-1H-benzo[e][1,4]diazepin-3-yl)nicotinamide]	6.78	6.82	15.961
COCCOc1ccc(Cl)cc1C(=O)NC1N=C(c2c(Cl)cccc2Cl)c2ccccc2NC1=O (stereo not drawn) [Example 47, 5-Chloro-N-(5-(2,6-dichlorophenyl)-2-oxo-2,3-dihydro-1H-benzo[e][1,4]diazepin-3-yl)-2-(2-methoxyethoxy)benzamide]	6.83	6.23	>25
COCCOc1ccc(F)cc1C(=O)NC1N=C(c2c(Cl)cccc2Cl)c2ccccc2NC1=O (stereo not drawn) [Example 48, N-(5-(2,6-Dichlorophenyl)-2-oxo-2,3-dihydro-1H-benzo[e][1,4]diazepin-3-yl)-5-fluoro-2-(2-methoxyethoxy)benzamide]	6.81	6.15	>25
COCCOc1ccc(Cl)cc1C(=O)NC1N=C(c2c(Cl)cc(Cl)cc2CN2CCOCC2)c2ccccc2NC1=O (stereo not drawn) [Example 49, 5-Chloro-N-(5-(2,4-dichloro-6-(morpholinomethyl)phenyl)-2-oxo-2,3-dihydro-1H-benzo[e][1,4]diazepin-3-yl)-2-(2-methoxyethoxy)benzamide]	6.08	6.78	11.02
COCCOc1ccc(F)cc1C(=O)NC1N=C(c2c(Cl)cc(Cl)cc2CN2CCOCC2)c2ccccc2NC1=O (stereo not drawn) [Example 50, N-(5-(2,4-Dichloro-6-(morpholinomethyl)phenyl)-2-oxo-2,3-dihydro-1H-benzo[e][1,4]diazepin-3-yl)-5-fluoro-2-(2-methoxyethoxy)benzamide]	6.18	6.68	11.74
COCCOc1ncc(Cl)cc1C(=O)NC1N=C(c2c(Cl)cc(Cl)cc2CN2CCOCC2)c2ccccc2NC1=O (stereo not drawn) [Example 51, 5-Chloro-N-(5-(2,4-dichloro-6-(morpholinomethyl)phenyl)-2-oxo-2,3-dihydro-1H-benzo[e][1,4]diazepin-3-yl)-2-(2-methoxyethoxy)nicotinamide]	5.91	6.55	>25
COCCOc1ncc(F)cc1C(=O)NC1N=C(c2c(Cl)cc(Cl)cc2CN2CCOCC2)c2ccccc2NC1=O (stereo not drawn) [Example 52, N-(5-(2,4-Dichloro-6-(morpholinomethyl)phenyl)-2-oxo-2,3-dihydro-1H-benzo[e][1,4]diazepin-3-yl)-5-fluoro-2-(2-methoxyethoxy)nicotinamide]	6.22	6.89	24.829
COCCOc1ccc(F)cc1C(=O)NC1N=C(c2c(Cl)cc(Cl)cc2OC)c2ccccc2NC1=O (stereo not drawn) [Example 53, N-(5-(2,4-Dichloro-6-methoxyphenyl)-2-oxo-2,3-dihydro-1H-benzo[e][1,4]diazepin-3-yl)-5-fluoro-2-(2-methoxyethoxy)benzamide]	6.81	7.23	24.827
CCOCCOc1ncc(F)cc1C(=O)NC1N=C(c2c(Cl)cc(Cl)cc2OC)c2ccccc2NC1=O (stereo not drawn) [Example 55, N-(5-(2,4-Dichloro-6-methoxyphenyl)-2-oxo-2,3-dihydro-1H-benzo[e][1,4]diazepin-3-yl)-2-(2-ethoxyethoxy)-5-fluoronicotinamide]	6.93	7.57	18.821
CCOc1cc(Cl)cc(Cl)c1C1=NC(NC(=O)c2cc(F)ccc2OCCOC)C(=O)Nc2ccccc21 (stereo not drawn) [Example 56, N-(5-(2,4-Dichloro-6-ethoxyphenyl)-2-oxo-2,3-dihydro-1H-benzo[e][1,4]diazepin-3-yl)-5-fluoro-2-(2-methoxyethoxy)benzamide]	6.81	7.41	11.349
CCOc1cc(Cl)cc(Cl)c1C1=NC(NC(=O)c2cc(F)cnc2OCCOC)C(=O)Nc2ccccc21 (stereo not drawn) [Example 57, N-(5-(2,4-Dichloro-6-ethoxyphenyl)-2-oxo-2,3-dihydro-1H-benzo[e][1,4]diazepin-3-yl)-5-fluoro-2-(2-methoxyethoxy)nicotinamide]	7.14	7.69	22.698
CCOCCOc1ncc(F)cc1C(=O)NC1N=C(c2c(Cl)cc(Cl)cc2OCC)c2ccccc2NC1=O (stereo not drawn) [Example 58, N-(5-(2,4-Dichloro-6-ethoxyphenyl)-2-oxo-2,3-dihydro-1H-benzo[e][1,4]diazepin-3-yl)-2-(2-ethoxyethoxy)-5-fluoronicotinamide]	7.16	8.00	11.875
COCCOc1ccc(Cl)cc1C(=O)N[C@H]1N=C(c2c(Cl)cc(Cl)cc2Cl)c2ccccc2NC1=O [Example 59, (S)-5-Chloro-2-(2-methoxyethoxy)-N-(2-oxo-5-(2,4,6-trichlorophenyl)-2,3-dihydro-1H-benzo[e][1,4]diazepin-3-yl)benzamide]	7.06	7.34	>25
COCCOc1ccc(Cl)cc1C(=O)N[C@@H]1N=C(c2c(Cl)cc(Cl)cc2Cl)c2ccccc2NC1=O [Example 60, (R)-5-Chloro-2-(2-methoxyethoxy)-N-(2-oxo-5-(2,4,6-trichlorophenyl)-2,3-dihydro-1H-benzo[e][1,4]diazepin-3-yl)benzamide]	4.56	6.10	>25
COCCOc1ccc(F)cc1C(=O)N[C@H]1N=C(c2c(Cl)cc(Cl)cc2Cl)c2ccccc2NC1=O [Example 61, (S)-5-Fluoro-2-(2-methoxyethoxy)-N-(2-oxo-5-(2,4,6-trichlorophenyl)-2,3-dihydro-1H-benzo[e][1,4]diazepin-3-yl)benzamide]	7.35	7.78	17.347
COCCOc1ccc(F)cc1C(=O)N[C@@H]1N=C(c2c(Cl)cc(Cl)cc2Cl)c2ccccc2NC1=O [Example 62, (R)-5-Fluoro-2-(2-methoxyethoxy)-N-(2-oxo-5-(2,4,6-trichlorophenyl)-2,3-dihydro-1H-benzo[e][1,4]diazepin-3-yl)benzamide]	4.78	6.23	24.765
COCCOc1ncc(F)cc1C(=O)N[C@H]1N=C(c2c(Cl)cc(Cl)cc2Cl)c2ccccc2NC1=O [Example 63, (S)-5-Fluoro-2-(2-methoxyethoxy)-N-(2-oxo-5-(2,4,6-trichlorophenyl)-2,3-dihydro-1H-benzo[e][1,4]diazepin-3-yl)nicotinamide]	7.30	8.01	17.386
